In ChEMBL document CHEMBL1129875, “SYNTHESIS AND ANTISTAPHYLOCOCCAL ACTIVITY OF NEMATOPHIN AND ITS ANALOGS” (1997):
≈ marks a conversion by molar mass, not a printed value.

Test system: Staphylococcus aureus
Assay: Minimum inhibitory concentration required to inhibit Staphylococcus aureus ATCC 29213 cell growth
Assay type: functional

SMILES	MIC [µg/mL]
CC(C)C(=O)C(=O)NCCc1c[nH]c2ccccc12	3 (≈ 11.6 µM)
CCC(=O)C(=O)NCCc1c[nH]c2ccccc12	100 (≈ 409 µM)
CCC(C)C(=O)C(=O)OCCc1c[nH]c2ccccc12 (stereo unspecified)	25 (≈ 91.5 µM)
CC(=O)C(=O)NCCc1c[nH]c2ccccc12	100 (≈ 434 µM)
CCC(C)C(=O)C(=O)NCCc1c[nH]c2ccc(C)cc12 (stereo unspecified)	3 (≈ 10.5 µM)
CCC(C)C(=O)C(=O)NCCc1c[nH]c2cc(F)ccc12 (stereo unspecified)	0.7 (≈ 2.41 µM)
CCC(C)C(=O)C(=O)NCCc1c[nH]c2ccc(OC)cc12 (stereo unspecified)	3 (≈ 9.92 µM)

Other lines, results leading:

MIC [µg/mL]	SMILES
0.7 (≈ 2.57 µM)	CC(C)CC(=O)C(=O)NCCc1c[nH]c2ccccc12
0.7 (≈ 2.57 µM)	CCC(C)C(=O)C(=O)NCCc1c[nH]c2ccccc12 (stereo unspecified)
> 100	CCC(C)C(O)C(=O)NCCc1c[nH]c2ccccc12 (stereo unspecified)
> 100	CCC(C)/C(=N\OC)C(=O)NCCc1c[nH]c2ccccc12 (stereo unspecified)
